In patent publication US4191760A, “Dibenzodiazepines” (Abbott Laboratories, priority 1978, dated 1980):

What was measured:
[1] = system: brain homovanillic acid (HVA); experiment: Effect of Drug Compounds on Brain Level of Homovanillic Acid (HVA); assay type: in vivo, male Long Evans rats; settings: brain HVA as ratio to control group (control 1.0); 0.15 mmoles/kg intraperitoneally; brains minus cerebella two or three hours later; ratios greater than 1.6 of practical significance
Experimental: Effect of Drug Compounds on Brain Level of Homovanillic Acid (HVA)
In testing for the effectiveness of the present drug compounds on the brain level of homovanillic acid (HVA), the drugs were administered intraperitoneally to male Long Evans rats (Simonsen) usually as aqueous solutions but in certain cases as suspensions in 0.5% methocel in 0.9% saline. The standard testing dose was 0.15 mmoles/kg body weight. The test and control groups consisted of 3-5 and 5 animals, respectively. The analyses were performed on brains (minus cerebella) removed two or three hours later. In the analyses, standard extraction and fluorimetric methods were used.

[2] = system: Methamphetamine induced hyperactivity; experiment: Antagonism of Methamphetamine induced hyperactivity in rats; assay type: in vivo, Male Long-Evans black hooded rats; settings: one hour prior to Methamphetamine 1 mg./kg. intraperitoneal; for ED50: Rattus norvegicus, oral, activity counts at one and two hour intervals, read with sign (+)/(-); for potentiation (+) or antagonism (-) of Methamphetamine: oral 5, 20 and 80 mg./kg., sign printed beside the oral ED50
Experimental: Effectiveness of Drug Compound on Inhibiting Methamphetamine Antagonism in Rats
Male Long-Evans black hooded rats, weighing between 100 and 150 grams, were administered the test drugs at oral doses of 5, 20 and 80 mg./kg. one hour prior to the administration of Methamphetamine at an intraperitoneal dose of 1 mg./kg. Three animals were tested at each dose level. […] Antagonism of Methamphetamine induced hyperactivity was recorded as digital counts received from the photocells at one and two hour intervals. Placebo controls received a volume dose of the 0.5 carboxymethylcellulose vehicle. The data were evaluated by a one-way analysis of variance computer program.
In the results, a (+) indicates a potentiation of Metamphetamine and a (-) is antagonism of Metamphetamine.

SMILES	HVA Ratio [1]	ED50 [2] [mg/kg]	potentiation (+) or antagonism (-) of Methamphetamine [2]
Clc1ccc2c(c1)N=C(N1CCN(CC3CC3)CC1)c1ccccc1N2 [VI, 8-Chloro-11-(4-cyclopropylmethyl-piperazinyl)-5H-dibenzo[b,e][1,4]diazepine]	3.4	80	+
O=CN1CCCN(C2=Nc3cc(Cl)ccc3Nc3ccccc32)CC1 [XI, 8-Chloro-11-(4-formyl-1-homopiperazinyl)-5H-dibenzo[b,e][1,4]diazepine]	1.0	80	+
C#CCN1CCN(C2=Nc3cc(Cl)ccc3Nc3ccccc32)CC1 [VIII, 8-Chloro-11-(4-propargyl-1-piperazinyl)-5H-dibenzo[b,e][1,4]diazepine]	0.9	5	+
CN1CCCN(C2=Nc3cc(Cl)ccc3Nc3ccccc32)CC1 [X, 8-Chloro-11-(4-methyl-1-homopiperazinyl)-5H-dibenzo[b,e][1,4]diazepine]	1.0	9	+
Clc1ccc2c(c1)N=C(N1CCCN(CC3CC3)CC1)c1ccccc1N2 [XII, 8-Chloro-11-(4-cyclopropylmethyl-1-homopiperazine)-5H-dibenzo[b,e][1,4]diazepine]	0.9	80	+
Clc1ccc2c(c1)N=C(N1CCN(C3CC3)CC1)c1ccccc1N2 [VII, 8-Chloro-11-(4-cyclopropyl-1-piperazinyl)-5H-dibenzo[b,e][1,4]diazepine]	1.1	60	-
Clc1ccc2c(c1)N=C(N1CCCN(C3CC3)CC1)c1ccccc1N2 [IX, 8-Chloro-11-(4-cyclopropyl-1-homopiperazinyl)-5H-dibenzo[b,e][1,4]diazepine]	0.9	5	+
